Data published in patent US12371454B2, “Cyclic peptide compound having Kras inhibitory action” (priority 2019, dated 2025).
Starred links: 1 amine or outer side, 2 acyl side, 3 side chain; linkers in the order of their positions; H or OH if unused. Positions of bridges follow the written chain, without caps; N, C: chain ends. Non-standard residues stand in square brackets, D forms with d. Residues, ends and D or L forms follow the SMILES beside them. *: point of attachment. hPhe(3-Cl-4-CF3) = N[C@@H](CCc1ccc(C(F)(F)F)c(Cl)c1)C(=O)O; hPhe(3-F,4-CF3) = N[C@@H](CCc1ccc(C(F)(F)F)c(F)c1)C(=O)O; NMePhe(4-CF3) = CN[C@@H](Cc1ccc(C(F)(F)F)cc1)C(=O)O; X68 = O=C([C@H](CCc1ccc(OC(F)F)c(F)c1)N[*:1])[*:2]; X34 = O=C([C@H](CCc1ccc(C(F)(F)F)nc1)N[*:1])[*:2]; NMePhe(4-Cl) = CN[C@@H](Cc1ccc(Cl)cc1)C(=O)O; X9 = O=C([C@H](CCc1ccc2cccnc2c1)N[*:1])[*:2]; NMePhe(4-Me) = CN[C@@H](Cc1ccc(C)cc1)C(=O)O; NMePhe(4-I) = CN[C@@H](Cc1ccc(I)cc1)C(=O)O; NMedβ3hAla = C[C@H](CC(=O)[*:2])N(C)[*:1]; NMeGly(cPent) = CN[C@H](C(=O)O)C1CCCC1; NMeCha = CN[C@@H](CC1CCCCC1)C(=O)O; NEtLeu = CCN[C@@H](CC(C)C)C(=O)O; NMeChg = CN[C@H](C(=O)O)C1CCCCC1; NMeI = CC[C@H](C)[C@H](NC)C(=O)O; d(β3hL) = CC(C)C[C@@H](N)CC(=O)O; NMeD = CN[C@@H](CC(=O)O)C(=O)O; NMeHpra = C#CCC[C@H](NC)C(=O)O; NMeL = CN[C@@H](CC(C)C)C(=O)O; NMeV = CN[C@H](C(=O)O)C(C)C; d(β3hA) = C[C@@H](N)CC(=O)O; NMeS = CN[C@@H](CO)C(=O)O; Morpholide = C1CN(*)CCO1; NMeA = CN[C@@H](C)C(=O)O; Piperidide = C1CCN(*)CC1; dNMeA = CN[C@H](C)C(=O)O; Ac5c = NC1(C(=O)O)CCCC1; Aze = O=C(O)[C@@H]1CCN1; Sar = CNCC(=O)O; Propyl = CCC*

test system: Human pancreatic cancer cell line AsPC-1; assay: Measurement of AsPC-1 cell growth inhibition (AsPC-1 CGI); format: cell-based; details: 96 h
Outline: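 AsPC-1 cells in 15% FBS RPMI-1640 were exposed to test compound for 96 hours at 37° C, with CellTiter-Glo as endpoint.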

| SMILES | IC50 |
| --- | --- |
| CC[C@H](C)[C@@H]1NC(=O)[C@H](CC(C)C)N(C)C(=O)C[C@@H](C(=O)N2CCCCC2)N(C)C(=O)[C@H](C2CCCC2)N(C)C(=O)C2(CCCC2)NC(=O)[C@@H]2CCCN2C(=O)[C@H](CCc2ccc3cccnc3c2)NC(=O)CN(C)C(=O)[C@H](CC2CCCCC2)N(C)C(=O)[C@@H]2CCN2C(=O)[C@H](C)N(C)C1=O [Compound 2077] ([NMeL]I[NMeA][Aze][NMeCha][Sar][X9]P[Ac5c][NMeGly(cPent)][NMeD]-Piperidide; lactam N-11) | 100 to 500 nM |
| CCCOC[C@H]1C(=O)N(C)CC(=O)N[C@@H](CCc2ccc(C(F)(F)F)c(F)c2)C(=O)N2CCC[C@H]2C(=O)NC2(CCCC2)C(=O)N(C)[C@@H]([C@@H](C)CC)C(=O)N(C)[C@H](C)CC(=O)N(C)[C@@H](CC(C)C)C(=O)N[C@@H]([C@@H](C)CC)C(=O)N(C)[C@@H](C)C(=O)N2CC[C@H]2C(=O)N1C [Compound 694] (cyclo([Ac5c][NMeI][NMedβ3hAla][NMeL]I[NMeA][Aze][NMeS](Propyl)[Sar][hPhe(3-F,4-CF3)]P)) | 20 to 50 nM |
| CC[C@H](C)[C@@H]1NC(=O)[C@H](CC(C)C)N(C)C(=O)C[C@@H](C)NC(=O)[C@H](C2CCCC2)N(C)C(=O)C2(CCCC2)NC(=O)[C@@H]2CCCN2C(=O)[C@H](CCc2ccc(C(F)(F)F)c(Cl)c2)NC(=O)[C@@H](C)N(C)C(=O)[C@H](Cc2ccc(C)cc2)N(C)C(=O)[C@@H]2CCN2C(=O)[C@H](C)N(C)C1=O [Compound 1504] (cyclo([Ac5c][NMeGly(cPent)][d(β3hA)][NMeL]I[NMeA][Aze][NMePhe(4-Me)][dNMeA][hPhe(3-Cl-4-CF3)]P)) | 100 to 500 nM |
| CC[C@H](C)[C@@H]1NC(=O)[C@H](CC(C)C)N(C)C(=O)C[C@@H](C(=O)N2CCCCC2)N(C)C(=O)[C@H](C2CCCC2)N(C)C(=O)C2(CCCC2)NC(=O)[C@@H]2CCCN2C(=O)[C@H](CCc2ccc(OC(F)F)c(F)c2)NC(=O)CN(C)C(=O)[C@H](CC2CCCCC2)N(C)C(=O)[C@@H]2CCN2C(=O)[C@H](C)N(C)C1=O [Compound 2076] ([NMeL]I[NMeA][Aze][NMeCha][Sar][X68]P[Ac5c][NMeGly(cPent)][NMeD]-Piperidide; lactam N-11) | 50 to 100 nM |
| C#CCC[C@H]1C(=O)N[C@@H]([C@@H](C)CC)C(=O)N(C)[C@@H](C)C(=O)N2CC[C@H]2C(=O)N(C)[C@@H](Cc2ccc(I)cc2)C(=O)N(C)CC(=O)N[C@@H](CCc2ccc(C(F)(F)F)c(Cl)c2)C(=O)N2CCC[C@H]2C(=O)NC2(CCCC2)C(=O)N(C)[C@@H](C2CCCCC2)C(=O)N(C)[C@H](C)CC(=O)N1C [Compound 961] (cyclo([Ac5c][NMeChg][NMedβ3hAla][NMeHpra]I[NMeA][Aze][NMePhe(4-I)][Sar][hPhe(3-Cl-4-CF3)]P)) | 100 to 500 nM |
| CC[C@H](C)[C@@H]1NC(=O)[C@H](CC(C)C)N(C)C(=O)C[C@@H](C(=O)N2CCCCC2)N(C)C(=O)[C@H](C2CCCC2)N(C)C(=O)C2(CCCC2)NC(=O)[C@@H]2CCCN2C(=O)[C@H](CCc2ccc(C(F)(F)F)nc2)NC(=O)CN(C)C(=O)[C@H](CC2CCCCC2)N(C)C(=O)[C@@H]2CCN2C(=O)[C@H](C)N(C)C1=O [Compound 2078] ([NMeL]I[NMeA][Aze][NMeCha][Sar][X34]P[Ac5c][NMeGly(cPent)][NMeD]-Piperidide; lactam N-11) | 100 to 500 nM |
| CC[C@H](C)[C@@H]1NC(=O)[C@H](CC(C)C)N(C)C(=O)C[C@@H](CC(C)C)NC(=O)[C@H]([C@@H](C)CC)N(C)C(=O)C2(CCCC2)NC(=O)[C@@H]2CCCN2C(=O)[C@H](CCc2ccc(C(F)(F)F)c(Cl)c2)NC(=O)CN(C)C(=O)[C@H](CC2CCCCC2)N(C)C(=O)[C@@H]2CCN2C(=O)[C@H](C)N(C)C1=O [Compound 798] (cyclo([Ac5c][NMeI][d(β3hL)][NMeL]I[NMeA][Aze][NMeCha][Sar][hPhe(3-Cl-4-CF3)]P)) | 100 to 500 nM |
| CC[C@H](C)[C@@H]1NC(=O)[C@H](CC(C)C)N(C)C(=O)C[C@@H](C)NC(=O)[C@H](C(C)C)N(C)C(=O)C2(CCCC2)NC(=O)[C@@H]2CCCN2C(=O)[C@H](CCc2ccc(C(F)(F)F)c(Cl)c2)NC(=O)CN(C)C(=O)[C@H](Cc2ccc(Cl)cc2)N(C)C(=O)[C@@H]2CCN2C(=O)[C@H](C)N(C)C1=O [Compound 1018] (cyclo([Ac5c][NMeV][d(β3hA)][NMeL]I[NMeA][Aze][NMePhe(4-Cl)][Sar][hPhe(3-Cl-4-CF3)]P)) | 100 to 500 nM |
| CC[C@H](C)[C@@H]1NC(=O)[C@H](CC(C)C)N(CC)C(=O)C[C@@H](C(=O)N2CCOCC2)N(C)C(=O)[C@H]([C@@H](C)CC)N(C)C(=O)C2(CCCC2)NC(=O)[C@@H]2CCCN2C(=O)[C@H](CCc2ccc(C(F)(F)F)c(Cl)c2)NC(=O)CN(C)C(=O)[C@H](Cc2ccc(C(F)(F)F)cc2)N(C)C(=O)[C@@H]2CCN2C(=O)[C@H](C)NC1=O [Compound 1233] ([NEtLeu]IA[Aze][NMePhe(4-CF3)][Sar][hPhe(3-Cl-4-CF3)]P[Ac5c][NMeI][NMeD]-Morpholide; lactam N-11) | 50 to 100 nM |
